We go through four molecules from patent US12679878B2, “CRF2 receptor agonists and their use in therapy” (SANOFI, priority 2020, dated 2026).

A word on the EC50: it is the concentration that produces a half-maximal response. As usually defined, the Emax is the greatest response seen or fitted, relative to the assay's reference.

One test has as its target T1, CRF1R receptor (Homo sapiens, UniProt P34998).
T1 construct: host or cells: CHO-K1 clone 2
T1 sequence (P34998 24-415): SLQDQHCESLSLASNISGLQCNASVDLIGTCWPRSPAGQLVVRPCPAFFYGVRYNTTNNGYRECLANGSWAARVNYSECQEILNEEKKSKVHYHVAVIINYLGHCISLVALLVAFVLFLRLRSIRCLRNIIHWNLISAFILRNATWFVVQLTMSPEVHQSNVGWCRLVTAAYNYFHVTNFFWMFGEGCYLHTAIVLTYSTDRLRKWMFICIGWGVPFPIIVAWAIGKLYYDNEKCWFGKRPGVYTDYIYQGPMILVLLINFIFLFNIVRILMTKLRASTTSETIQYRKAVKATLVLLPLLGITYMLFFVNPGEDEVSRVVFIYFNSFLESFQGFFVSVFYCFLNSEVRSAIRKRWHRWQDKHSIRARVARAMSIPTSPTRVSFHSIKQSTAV
As to the kind of experiment: cAMP activity at anti-target CRF1R, CHO-K1 cell line clone 2 (Example 19.10). To be noted: CRF1R CHO-K1 clone 2; for EC50: 0% HSA, read-out: EC50 [nM] 0% HSA; for Emax: 100% = Sauvagine at 100 nM. The format is cell-based. The method in brief: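 The cAMP read-out used the same protocol as the previous assay, except that Sauvagine at 100 nM set the 100% activation control. Cells were CHO-K1 clone 2 overexpressing CRF1R, cultured in F12 medium with 10% FBS and G418 and stored frozen until use.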

The target in another test is T2, human CRF2α receptor (Homo sapiens, UniProt Q13324).
T2 construct: expressed in transfected cells; host or cells: TeloHEAC
T2 sequence (Q13324 1-411): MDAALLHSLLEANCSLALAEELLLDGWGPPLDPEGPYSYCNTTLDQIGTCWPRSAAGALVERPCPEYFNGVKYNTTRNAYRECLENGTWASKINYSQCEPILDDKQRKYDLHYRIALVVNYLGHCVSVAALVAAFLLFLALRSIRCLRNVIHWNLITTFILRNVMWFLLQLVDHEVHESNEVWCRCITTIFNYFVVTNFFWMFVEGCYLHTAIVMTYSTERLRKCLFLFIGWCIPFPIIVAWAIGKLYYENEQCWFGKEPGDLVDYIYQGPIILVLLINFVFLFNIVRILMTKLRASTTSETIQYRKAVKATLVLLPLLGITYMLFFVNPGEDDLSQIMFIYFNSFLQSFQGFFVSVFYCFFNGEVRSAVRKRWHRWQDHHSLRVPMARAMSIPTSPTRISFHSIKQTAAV
As to the kind of experiment: cAMP agonism at human CRF2α receptor in TeloHEAC cells, FA modified peptides (Example 19.9). The format is cell-based. The note with it: 0% HSA, relative to urocortin 2. How it is done:
Agonism of compounds for human corticotropin-releasing factor 2α (CRF2α receptor) was determined by a functional assay measuring cAMP modulation upon treatment of TeloHEAC cells stably expressing human CRF2α receptor.
Compounds were dissolved at 0.5 mM in 100% DMSO and serially diluted (1:2) in 100% DMSO for 16 dilutions. 20 nL of each dilution was then transferred to 384-well assay plate using an acoustic droplet ejection instrument. 5 μL of compound buffer (1×HBSS; 20 mM HEPES, 2 mM IBMX, 0% or 0.2% HSA) were then added to each well.
Prior to use, frozen cells were thawed quickly at 37° C. and washed (5 min at 900 rpm) with 20 mL cell buffer (1×HBSS; 20 mM HEPES). Cells were resuspended in cell buffer and adjusted to a cell density of 800.000 cells/ml.
5 μL cells (final dell density: 4000 cells/well) were dispensed in the compound-containing 384-well assay plate and incubated for 30 minutes 37° C.
The CAMP level in treated cells was determined using the Cisbio 62AM4PEC kit according to manufacturer's instruction. Finally, plates were incubated for 1 h at room temperature before measuring the fluorescence ratio between 665/620 nm.
The percent activity value (E %) was calculated by setting 100 nM of urocortin 2 (UCN2) as 100%. The in vitro potency of the compounds was quantified by determining the concentrations that caused 50% activation of maximal response (EC50) relative to urocortin 2.

Starred links: 1 amine or outer side, 2 acyl side, 3 side chain; linkers in the order of their positions; H or OH if unused. Non-standard residues stand in square brackets, D forms with d. Residues, ends and D or L forms follow the SMILES beside them. Groups on a side chain read outwards from the residue. *: point of attachment. C16 diacid = O=C(O)CCCCCCCCCCCCCCC(=O)*; γGlu = O=C(O)[C@H](CCC(=O)[*:2])N[*:1]; AEEA = NCCOCCOCC(=O)O; Aib = CC(C)(N)C(=O)O

As to `CC[C@H](C)[C@H](N)C(=O)N[C@H](C(=O)N[C@@H](CC(C)C)C(=O)N[C@@H](CO)C(=O)N[C@@H](CC(C)C)C(=O)N[C@@H](CC(=O)O)C(=O)N[C@@H](C(=O)N1CCC[C@H]1C(=O)N[C@H](C(=O)N[C@@H](CCCCN)C(=O)N[C@@H](CC(C)C)C(=O)N[C@@H](CCCCNC(=O)COCCOCCNC(=O)COCCOCCNC(=O)CC[C@H](NC(=O)CCCCCCCCCCCCCCC(=O)O)C(=O)O)C(=O)N[C@@H](CCC(N)=O)C(=O)N[C@H](C(=O)N[C@@H](CC(C)C)C(=O)N[C@@H](CC(C)C)C(=O)N[C@@H](CCCCN)C(=O)N[C@@H](CCC(N)=O)C(=O)N[C@@H](CCC(=O)O)C(=O)N[C@@H](CCCNC(=N)N)C(=O)N[C@@H](CCC(N)=O)C(=O)N[C@@H](CCCCN)C(=O)NC(C)(C)C(=O)N[C@@H](CCC(N)=O)C(=O)N[C@@H](CCCNC(=N)N)C(=O)N[C@@H](CCC(=O)O)C(=O)N[C@@H](CCC(N)=O)C(=O)N[C@@H](C)C(=O)N[C@@H](CCC(=O)O)C(=O)N[C@@H](CCCCN)C(=O)N[C@@H](CC(N)=O)C(=O)N[C@@H](CCCCN)C(=O)N[C@@H](CCC(N)=O)C(=O)N[C@H](C(=O)N[C@@H](CC(C)C)C(=O)N[C@@H](C)C(=O)N[C@@H](CCC(N)=O)C(=O)N[C@H](C(N)=O)C(C)C)[C@@H](C)CC)[C@@H](C)CC)[C@@H](C)CC)C(C)C)C(C)C` [compound 198] (H-IVLSLD[dV]PIKLK([AEEA-AEEA-γGlu-C16 diacid])QILLKQERQK[Aib]QREQAEKNKQILAQV-NH2; N-terminus assumed), on CRF1R receptor, the concentration for a half-maximal effect (EC50) was greater than 100 nM and the Emax is 1.4%. Also, at human CRF2α receptor, the EC50 was determined as 0.49 nM.
Consider `CC[C@H](C)[C@H](N)C(=O)N[C@H](C(=O)N[C@@H](CC(C)C)C(=O)N[C@@H](CO)C(=O)N[C@@H](CC(C)C)C(=O)N[C@@H](CC(=O)O)C(=O)N[C@@H](C(=O)N1CCC[C@H]1C(=O)N[C@H](C(=O)N[C@@H](CCCCN)C(=O)N[C@@H](CC(C)C)C(=O)N[C@@H](CCCCNC(=O)COCCOCCNC(=O)COCCOCCNC(=O)CC[C@H](NC(=O)CC[C@H](NC(=O)CCCCCCCCCCCCCCC(=O)O)C(=O)O)C(=O)O)C(=O)N[C@@H](CCC(N)=O)C(=O)N[C@H](C(=O)N[C@@H](CC(C)C)C(=O)N[C@@H](CC(C)C)C(=O)N[C@@H](CCCCN)C(=O)N[C@@H](CCC(N)=O)C(=O)N[C@@H](CCC(=O)O)C(=O)N[C@@H](CCCNC(=N)N)C(=O)N[C@@H](CCC(N)=O)C(=O)N[C@@H](CCCCN)C(=O)NC(C)(C)C(=O)N[C@@H](CCC(N)=O)C(=O)N[C@@H](CCCNC(=N)N)C(=O)N[C@@H](CCC(=O)O)C(=O)N[C@@H](CCC(N)=O)C(=O)N[C@@H](C)C(=O)N[C@@H](CCC(=O)O)C(=O)N[C@@H](CCCCN)C(=O)N[C@@H](CC(N)=O)C(=O)N[C@@H](CCCCN)C(=O)N[C@@H](CCC(N)=O)C(=O)N[C@H](C(=O)N[C@@H](CC(C)C)C(=O)N[C@@H](C)C(=O)N[C@@H](CCC(N)=O)C(=O)N[C@H](C(N)=O)C(C)C)[C@@H](C)CC)[C@@H](C)CC)[C@@H](C)CC)C(C)C)C(C)C` [compound 199] (H-IVLSLD[dV]PIKLK([AEEA-AEEA-γGlu-γGlu-C16 diacid])QILLKQERQK[Aib]QREQAEKNKQILAQV-NH2; N-terminus assumed), for which, at CRF1R receptor, the 50% effective concentration (EC50) is greater than 100 nM and the Emax is -2.9%. The molecule also came in with an EC50 on human CRF2α receptor of 1.39 nM.
`CC[C@H](C)[C@H](N)C(=O)N[C@H](C(=O)N[C@@H](CC(C)C)C(=O)N[C@@H](CO)C(=O)N[C@@H](CC(C)C)C(=O)N[C@@H](CC(=O)O)C(=O)N[C@@H](C(=O)N1CCC[C@H]1C(=O)N[C@H](C(=O)N[C@@H](CCCCN)C(=O)N[C@@H](CC(C)C)C(=O)N[C@@H](CCCCNC(=O)COCCOCCNC(=O)COCCOCCNC(=O)CC[C@H](NC(=O)CCCCCCCCCCCCCCC(=O)O)C(=O)O)C(=O)N[C@@H](CCC(N)=O)C(=O)N[C@H](C(=O)N[C@@H](CC(C)C)C(=O)N[C@@H](CC(C)C)C(=O)N[C@@H](CCCCN)C(=O)N[C@@H](CCC(N)=O)C(=O)N[C@@H](CCC(=O)O)C(=O)N[C@@H](CCCNC(=N)N)C(=O)N[C@@H](CCC(N)=O)C(=O)N[C@@H](CCCCN)C(=O)N[C@@H](CCCCN)C(=O)NC(C)(C)C(=O)N[C@@H](CCCNC(=N)N)C(=O)N[C@@H](CCC(N)=O)C(=O)N[C@@H](CCCCN)C(=O)N[C@@H](C)C(=O)N[C@@H](CCC(=O)O)C(=O)N[C@@H](CCCCN)C(=O)N[C@@H](CC(N)=O)C(=O)N[C@@H](CCCCN)C(=O)N[C@@H](CCC(N)=O)C(=O)N[C@H](C(=O)N[C@@H](CC(C)C)C(=O)N[C@@H](C)C(=O)N[C@@H](CCC(N)=O)C(=O)N[C@H](C(N)=O)C(C)C)[C@@H](C)CC)[C@@H](C)CC)[C@@H](C)CC)C(C)C)C(C)C` [compound 200] (H-IVLSLD[dV]PIKLK([AEEA-AEEA-γGlu-C16 diacid])QILLKQERQKK[Aib]RQKAEKNKQILAQV-NH2; N-terminus assumed): the values for the half-maximal effective concentration (EC50) at CRF1R receptor and on human CRF2α receptor were greater than 100 nM and 8.7 nM, respectively. The Emax at CRF1R receptor worked out at 1.9%.
Turning to `CC[C@H](C)[C@H](N)C(=O)N[C@H](C(=O)N[C@@H](CC(C)C)C(=O)N[C@@H](CO)C(=O)N[C@@H](CC(C)C)C(=O)N[C@@H](CC(=O)O)C(=O)N[C@@H](C(=O)N1CCC[C@H]1C(=O)N[C@H](C(=O)N[C@@H](CCCCN)C(=O)N[C@@H](CC(C)C)C(=O)N[C@@H](CCCCNC(=O)COCCOCCNC(=O)COCCOCCNC(=O)CC[C@H](NC(=O)CC[C@H](NC(=O)CCCCCCCCCCCCCCC(=O)O)C(=O)O)C(=O)O)C(=O)N[C@@H](CCC(N)=O)C(=O)N[C@H](C(=O)N[C@@H](CC(C)C)C(=O)N[C@@H](CC(C)C)C(=O)N[C@@H](CCCCN)C(=O)N[C@@H](CCC(N)=O)C(=O)N[C@@H](CCC(=O)O)C(=O)N[C@@H](CCCNC(=N)N)C(=O)N[C@@H](CCC(N)=O)C(=O)N[C@@H](CCCCN)C(=O)N[C@@H](CCCCN)C(=O)NC(C)(C)C(=O)N[C@@H](CCCNC(=N)N)C(=O)N[C@@H](CCC(N)=O)C(=O)N[C@@H](CCCCN)C(=O)N[C@@H](C)C(=O)N[C@@H](CCC(=O)O)C(=O)N[C@@H](CCCCN)C(=O)N[C@@H](CC(N)=O)C(=O)N[C@@H](CCCCN)C(=O)N[C@@H](CCC(N)=O)C(=O)N[C@H](C(=O)N[C@@H](CC(C)C)C(=O)N[C@@H](C)C(=O)N[C@@H](CCC(N)=O)C(=O)N[C@H](C(N)=O)C(C)C)[C@@H](C)CC)[C@@H](C)CC)[C@@H](C)CC)C(C)C)C(C)C` [compound 201] (H-IVLSLD[dV]PIKLK([AEEA-AEEA-γGlu-γGlu-C16 diacid])QILLKQERQKK[Aib]RQKAEKNKQILAQV-NH2; N-terminus assumed), the EC50 on CRF1R receptor is greater than 100 nM; at human CRF2α receptor, 4.66 nM. In addition, the Emax on CRF1R receptor is -2.8%.
